Values joined by “and” are separate entries in the source; they are usually repeats but may differ in a detail not shown here. Equal entries are not always repeated.
Settings: 101.33 kPa, Liquid; for electrical conductivity: Parallel Plate Conductive Cell; for kinematic viscosity: Capillary tube (Ostwald / Ubbelohde) method

CCCCCC[n+]1ccn(C)c1.O=S(=O)([N-]S(=O)(=O)C(F)(F)F)C(F)(F)F
Settings	electrical conductivity	kinematic viscosity [m2/s]
278.15 K	0.0783 S/m	–
283.15 K	0.104 S/m	–
288.15 K	0.136 S/m	–
293.15 K	0.173 S/m	–
298.15 K	0.217 S/m and 0.218 S/m	5.06e-05
303.15 K	0.268 S/m	4.04e-05
308.15 K	0.326 S/m	–
313.15 K	0.391 S/m	–
313.16 K	–	2.7e-05
323.15 K	0.543 S/m	1.9e-05
333.15 K	0.726 S/m	1.39e-05
343.15 K	–	1.06e-05
